From ChEMBL document CHEMBL4507263, “Data for DCP probe BAY-474” (2021)
Active and inactive are the calls of the source. The calls are words filed in the database; no cut-off is given here.

Columns and labels:
[1] = biological target: 5-hydroxytryptamine receptor 2A (Homo sapiens) (UniProt P28223); settings: Compound concentration 10.0 uM
[2] = biological target: Delta-type opioid receptor (Homo sapiens) (UniProt P41143); settings: Compound concentration 10.0 uM
[3] = biological target: Muscarinic acetylcholine receptor M4 (Homo sapiens) (UniProt P08173); settings: Compound concentration 10.0 uM
[4] = biological target: Alpha-2A adrenergic receptor (Homo sapiens) (UniProt P08913); settings: Compound concentration 10.0 uM
[5] = biological target: 5-hydroxytryptamine receptor 1B (Homo sapiens) (UniProt P28222); settings: Compound concentration 10.0 uM
[6] = biological target: Hepatocyte growth factor receptor (Homo sapiens, UniProt P08581); assay: Homogeneous Time Resolved Fluorescence Assay
[7] = biological target: Mu-type opioid receptor (Homo sapiens) (UniProt P35372); settings: Compound concentration 10.0 uM
[8] = biological target: Muscarinic acetylcholine receptor M3 (Homo sapiens) (UniProt P20309); settings: Compound concentration 10.0 uM
[9] = biological target: T1, Muscarinic acetylcholine receptor M2 (Homo sapiens) (UniProt P08172); settings: Compound concentration 10.0 uM
T1 sequence (whole entry): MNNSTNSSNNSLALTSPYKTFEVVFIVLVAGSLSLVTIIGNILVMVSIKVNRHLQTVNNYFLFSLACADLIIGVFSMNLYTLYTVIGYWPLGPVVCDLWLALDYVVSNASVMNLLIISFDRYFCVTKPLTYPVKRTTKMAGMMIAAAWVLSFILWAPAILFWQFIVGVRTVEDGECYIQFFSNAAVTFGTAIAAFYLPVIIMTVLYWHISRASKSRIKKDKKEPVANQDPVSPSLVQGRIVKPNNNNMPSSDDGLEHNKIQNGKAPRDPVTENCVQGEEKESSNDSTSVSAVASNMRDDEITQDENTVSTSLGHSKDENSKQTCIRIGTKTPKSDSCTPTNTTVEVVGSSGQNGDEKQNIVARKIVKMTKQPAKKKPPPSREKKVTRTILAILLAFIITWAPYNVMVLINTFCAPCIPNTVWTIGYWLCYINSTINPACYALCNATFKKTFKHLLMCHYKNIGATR

[10] = biological target: 5-hydroxytryptamine receptor 3A (Homo sapiens) (UniProt P46098); settings: Compound concentration 10.0 uM
[11] = biological target: 5-hydroxytryptamine receptor 7 (Homo sapiens) (UniProt P34969); settings: Compound concentration 10.0 uM
[12] = biological target: Beta-1 adrenergic receptor (Homo sapiens) (UniProt P08588); settings: Compound concentration 10.0 uM
[13] = biological target: 5-hydroxytryptamine receptor 2C (Homo sapiens) (UniProt P28335); settings: Compound concentration 10.0 uM
[14] = biological target: Beta-2 adrenergic receptor (Homo sapiens) (UniProt P07550); settings: Compound concentration 10.0 uM
[15] = biological target: Beta-3 adrenergic receptor (Homo sapiens) (UniProt P13945); settings: Compound concentration 10.0 uM
[16] = biological target: Alpha-2C adrenergic receptor (Homo sapiens) (UniProt P18825); settings: Compound concentration 10.0 uM
[17] = biological target: 5-hydroxytryptamine receptor 6 (Homo sapiens, UniProt P50406); settings: Compound concentration 10.0 uM
D(1B) dopamine receptor = D(1B) dopamine receptor (Homo sapiens, UniProt P21918); settings: Compound concentration 10.0 uM
[18] = biological target: Sigma intracellular receptor 2 (Homo sapiens) (UniProt Q5BJF2); settings: Compound concentration 10.0 uM
[19] = biological target: Alpha-2B adrenergic receptor (Homo sapiens) (UniProt P18089); settings: Compound concentration 10.0 uM
[20] = biological target: D(1A) dopamine receptor (Homo sapiens) (UniProt P21728); settings: Compound concentration 10.0 uM
[21] = biological target: 5-hydroxytryptamine receptor 1E (Homo sapiens) (UniProt P28566); settings: Compound concentration 10.0 uM
[22] = biological target: Histamine H2 receptor (Homo sapiens) (UniProt P25021); settings: Compound concentration 10.0 uM
[23] = biological target: Alpha-1B adrenergic receptor (Homo sapiens) (UniProt P35368); settings: Compound concentration 10.0 uM
[24] = biological target: Muscarinic acetylcholine receptor M5 (Homo sapiens) (UniProt P08912); settings: Compound concentration 10.0 uM
[25] = biological target: Sigma non-opioid intracellular receptor 1 (Homo sapiens) (UniProt Q99720); settings: Compound concentration 10.0 uM
[26] = biological target: T2, D(4) dopamine receptor (Homo sapiens) (UniProt P21917); settings: Compound concentration 10.0 uM
T2 sequence (whole entry): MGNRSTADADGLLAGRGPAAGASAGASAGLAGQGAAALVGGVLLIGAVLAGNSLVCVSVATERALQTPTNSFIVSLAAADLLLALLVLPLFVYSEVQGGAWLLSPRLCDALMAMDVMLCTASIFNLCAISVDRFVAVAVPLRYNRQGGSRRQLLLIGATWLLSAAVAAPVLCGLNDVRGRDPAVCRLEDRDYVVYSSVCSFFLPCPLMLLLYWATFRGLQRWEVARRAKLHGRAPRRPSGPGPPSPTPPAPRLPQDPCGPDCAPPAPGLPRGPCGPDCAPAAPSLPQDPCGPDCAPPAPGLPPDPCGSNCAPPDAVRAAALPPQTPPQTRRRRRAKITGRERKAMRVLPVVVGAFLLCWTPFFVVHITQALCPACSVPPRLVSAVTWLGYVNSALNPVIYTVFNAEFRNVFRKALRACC

Chain of Alpha-2B adrenergic receptor (Homo sapiens) (P18089 whole entry): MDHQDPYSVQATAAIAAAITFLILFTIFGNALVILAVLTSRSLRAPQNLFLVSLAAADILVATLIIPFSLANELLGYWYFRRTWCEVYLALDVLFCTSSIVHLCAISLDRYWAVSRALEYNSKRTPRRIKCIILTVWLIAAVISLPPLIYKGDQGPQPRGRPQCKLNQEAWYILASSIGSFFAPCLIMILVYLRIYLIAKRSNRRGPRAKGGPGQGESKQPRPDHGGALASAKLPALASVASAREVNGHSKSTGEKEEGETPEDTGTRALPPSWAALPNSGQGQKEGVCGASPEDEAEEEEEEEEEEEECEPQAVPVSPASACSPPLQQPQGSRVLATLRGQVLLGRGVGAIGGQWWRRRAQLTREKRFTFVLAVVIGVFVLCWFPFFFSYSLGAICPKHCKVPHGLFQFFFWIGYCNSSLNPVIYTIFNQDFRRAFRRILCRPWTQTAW
Chain of D(1B) dopamine receptor (P21918 whole entry): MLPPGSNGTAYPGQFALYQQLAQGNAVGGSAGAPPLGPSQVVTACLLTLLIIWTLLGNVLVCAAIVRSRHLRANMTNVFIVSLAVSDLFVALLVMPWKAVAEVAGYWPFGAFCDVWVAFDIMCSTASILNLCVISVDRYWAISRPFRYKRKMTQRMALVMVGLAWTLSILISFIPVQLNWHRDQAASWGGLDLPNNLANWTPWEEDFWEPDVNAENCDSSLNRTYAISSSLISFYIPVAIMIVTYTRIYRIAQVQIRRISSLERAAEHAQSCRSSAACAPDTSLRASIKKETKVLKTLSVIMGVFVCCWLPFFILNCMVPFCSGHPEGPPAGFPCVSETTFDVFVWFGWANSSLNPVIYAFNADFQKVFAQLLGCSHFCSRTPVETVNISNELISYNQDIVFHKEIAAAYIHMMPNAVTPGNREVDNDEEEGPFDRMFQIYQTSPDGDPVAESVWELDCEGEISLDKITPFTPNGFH
Chain of Beta-3 adrenergic receptor (Homo sapiens) (P13945 whole entry, looked up): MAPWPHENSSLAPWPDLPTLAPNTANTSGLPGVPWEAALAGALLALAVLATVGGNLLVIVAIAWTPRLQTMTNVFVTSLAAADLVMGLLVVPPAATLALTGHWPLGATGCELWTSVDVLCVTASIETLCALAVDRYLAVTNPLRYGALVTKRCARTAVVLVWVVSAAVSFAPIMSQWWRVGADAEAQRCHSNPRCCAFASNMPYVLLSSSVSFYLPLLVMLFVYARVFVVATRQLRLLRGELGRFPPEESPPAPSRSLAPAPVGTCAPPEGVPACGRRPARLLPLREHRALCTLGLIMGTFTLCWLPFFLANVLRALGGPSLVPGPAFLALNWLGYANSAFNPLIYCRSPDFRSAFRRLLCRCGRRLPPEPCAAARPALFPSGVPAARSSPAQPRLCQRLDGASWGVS
Chain of Beta-2 adrenergic receptor (Homo sapiens) (P07550 whole entry, looked up): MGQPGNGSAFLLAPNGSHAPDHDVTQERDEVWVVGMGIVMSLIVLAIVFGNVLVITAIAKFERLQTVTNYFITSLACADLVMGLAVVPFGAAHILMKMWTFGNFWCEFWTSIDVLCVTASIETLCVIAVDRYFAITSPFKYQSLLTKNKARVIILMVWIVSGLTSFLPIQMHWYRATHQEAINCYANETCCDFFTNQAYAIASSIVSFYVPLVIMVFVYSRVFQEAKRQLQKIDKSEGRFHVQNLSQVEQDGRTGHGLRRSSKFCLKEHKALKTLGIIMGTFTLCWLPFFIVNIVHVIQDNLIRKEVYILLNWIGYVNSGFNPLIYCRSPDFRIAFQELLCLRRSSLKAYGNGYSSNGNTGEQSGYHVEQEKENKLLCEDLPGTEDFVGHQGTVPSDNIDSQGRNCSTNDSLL
Chain of Mu-type opioid receptor (Homo sapiens) (P35372 whole entry): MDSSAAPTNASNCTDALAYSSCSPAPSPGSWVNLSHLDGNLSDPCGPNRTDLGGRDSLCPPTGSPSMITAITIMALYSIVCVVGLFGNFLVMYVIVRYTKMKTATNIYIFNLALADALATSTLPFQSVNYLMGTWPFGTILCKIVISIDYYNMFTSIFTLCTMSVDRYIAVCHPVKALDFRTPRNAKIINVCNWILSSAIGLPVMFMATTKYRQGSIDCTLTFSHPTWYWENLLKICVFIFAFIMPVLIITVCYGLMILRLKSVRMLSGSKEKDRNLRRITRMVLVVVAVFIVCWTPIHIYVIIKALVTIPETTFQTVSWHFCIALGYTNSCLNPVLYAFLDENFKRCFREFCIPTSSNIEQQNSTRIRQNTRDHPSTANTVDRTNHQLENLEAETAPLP
Chain of 5-hydroxytryptamine receptor 3A (Homo sapiens) (P46098 whole entry): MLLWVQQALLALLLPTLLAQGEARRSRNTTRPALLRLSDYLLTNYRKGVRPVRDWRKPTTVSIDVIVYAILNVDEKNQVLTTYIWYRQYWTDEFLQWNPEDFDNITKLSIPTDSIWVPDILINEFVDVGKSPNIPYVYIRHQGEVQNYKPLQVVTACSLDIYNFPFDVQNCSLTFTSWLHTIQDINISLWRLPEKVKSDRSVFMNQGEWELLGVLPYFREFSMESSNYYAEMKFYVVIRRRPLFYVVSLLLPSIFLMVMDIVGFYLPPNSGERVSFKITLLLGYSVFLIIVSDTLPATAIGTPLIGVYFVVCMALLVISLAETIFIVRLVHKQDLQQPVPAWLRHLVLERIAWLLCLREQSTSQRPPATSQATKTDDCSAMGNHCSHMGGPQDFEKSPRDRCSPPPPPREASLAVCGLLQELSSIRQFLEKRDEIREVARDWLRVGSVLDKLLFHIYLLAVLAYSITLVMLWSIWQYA
Chain of Muscarinic acetylcholine receptor M5 (Homo sapiens) (P08912 whole entry): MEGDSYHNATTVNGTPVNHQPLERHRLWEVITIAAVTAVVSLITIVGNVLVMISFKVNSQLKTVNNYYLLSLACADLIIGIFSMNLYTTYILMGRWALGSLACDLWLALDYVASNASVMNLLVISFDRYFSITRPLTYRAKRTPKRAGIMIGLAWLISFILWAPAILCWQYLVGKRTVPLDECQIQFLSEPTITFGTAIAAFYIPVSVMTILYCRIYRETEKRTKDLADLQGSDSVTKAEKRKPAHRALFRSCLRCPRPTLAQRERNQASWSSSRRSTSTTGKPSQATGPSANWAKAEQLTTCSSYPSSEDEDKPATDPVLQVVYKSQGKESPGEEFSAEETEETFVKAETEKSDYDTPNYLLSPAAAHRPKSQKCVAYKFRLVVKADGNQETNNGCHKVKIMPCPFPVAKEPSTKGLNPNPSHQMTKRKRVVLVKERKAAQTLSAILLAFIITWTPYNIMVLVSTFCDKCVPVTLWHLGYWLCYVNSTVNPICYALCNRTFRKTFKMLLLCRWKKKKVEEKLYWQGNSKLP
Chain of Muscarinic acetylcholine receptor M4 (Homo sapiens) (P08173 whole entry): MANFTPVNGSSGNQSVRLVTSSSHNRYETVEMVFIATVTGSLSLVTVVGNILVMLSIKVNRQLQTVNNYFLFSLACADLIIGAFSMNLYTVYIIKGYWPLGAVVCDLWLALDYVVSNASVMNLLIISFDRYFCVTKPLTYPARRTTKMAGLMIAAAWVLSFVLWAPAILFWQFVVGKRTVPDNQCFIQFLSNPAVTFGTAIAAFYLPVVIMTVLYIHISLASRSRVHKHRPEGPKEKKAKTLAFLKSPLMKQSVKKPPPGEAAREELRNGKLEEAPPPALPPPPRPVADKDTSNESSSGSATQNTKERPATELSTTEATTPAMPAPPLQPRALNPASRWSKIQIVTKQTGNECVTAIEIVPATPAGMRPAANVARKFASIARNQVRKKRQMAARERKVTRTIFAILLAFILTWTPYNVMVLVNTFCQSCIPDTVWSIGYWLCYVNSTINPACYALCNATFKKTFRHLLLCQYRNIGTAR
Chain of Histamine H2 receptor (Homo sapiens) (P25021 whole entry): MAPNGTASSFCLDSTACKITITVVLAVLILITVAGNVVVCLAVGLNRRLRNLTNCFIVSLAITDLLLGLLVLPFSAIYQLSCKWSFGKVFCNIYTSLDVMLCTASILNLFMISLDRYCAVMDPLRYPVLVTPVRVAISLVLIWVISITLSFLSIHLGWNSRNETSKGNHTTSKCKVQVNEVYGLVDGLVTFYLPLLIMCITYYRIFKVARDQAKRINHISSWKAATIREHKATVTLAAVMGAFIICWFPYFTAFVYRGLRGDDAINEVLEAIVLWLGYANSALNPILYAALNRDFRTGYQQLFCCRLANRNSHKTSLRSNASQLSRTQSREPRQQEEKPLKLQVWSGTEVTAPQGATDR
Chain of Muscarinic acetylcholine receptor M3 (Homo sapiens) (P20309 whole entry, looked up): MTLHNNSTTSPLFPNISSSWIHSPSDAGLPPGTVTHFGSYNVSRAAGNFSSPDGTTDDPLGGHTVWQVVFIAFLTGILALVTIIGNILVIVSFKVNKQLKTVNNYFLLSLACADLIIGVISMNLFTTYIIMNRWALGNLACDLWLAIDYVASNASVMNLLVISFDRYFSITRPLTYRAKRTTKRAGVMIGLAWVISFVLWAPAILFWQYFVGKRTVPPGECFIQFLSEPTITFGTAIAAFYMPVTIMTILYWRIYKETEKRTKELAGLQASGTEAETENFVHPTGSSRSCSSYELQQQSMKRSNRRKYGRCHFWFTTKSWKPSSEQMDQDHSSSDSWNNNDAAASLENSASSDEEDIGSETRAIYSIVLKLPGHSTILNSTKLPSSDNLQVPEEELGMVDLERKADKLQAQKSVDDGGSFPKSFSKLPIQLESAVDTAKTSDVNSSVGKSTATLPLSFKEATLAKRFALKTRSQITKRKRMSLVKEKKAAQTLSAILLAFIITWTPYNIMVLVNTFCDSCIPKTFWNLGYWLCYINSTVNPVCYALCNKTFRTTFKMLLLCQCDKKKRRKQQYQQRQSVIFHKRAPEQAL
Chain of Sigma intracellular receptor 2 (Homo sapiens) (Q5BJF2 whole entry): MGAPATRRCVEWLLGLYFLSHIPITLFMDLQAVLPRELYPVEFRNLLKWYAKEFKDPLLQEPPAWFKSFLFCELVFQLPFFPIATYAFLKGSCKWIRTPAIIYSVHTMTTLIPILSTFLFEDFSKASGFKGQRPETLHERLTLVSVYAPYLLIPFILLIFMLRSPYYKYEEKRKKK

Row | Structure (SMILES) | inhibition [1] | inhibition [2] | inhibition [3] | inhibition [4] | inhibition [5] | IC50 [6] | inhibition [7] | inhibition [8] | inhibition [9] | inhibition [10] | inhibition [11] | inhibition [12] | inhibition [13] | inhibition [14] | inhibition [15] | inhibition [16] | inhibition [17] | inhibition (D(1B) dopamine receptor) | inhibition [18] | inhibition [19] | also measured
1 | CC1=C(C#N)[C@@H](c2ccc3[nH]nc(C)c3c2)C(C#N)=C(c2ccc(Cl)cc2)N1 [BAY-827] | 5.76% | 33.4% | 13% | 7.83% | 17.2% | 11 µM (not active) | -0.0207% | 8.81% | 18.8% | 2.6% | 8.19% | 4.66% | 71.8% | -0.813% | 24.3% | -1.57% | 55.7% | 58.1% | 23.4% | 4.71% | inhibition [20]: 6.7%; inhibition [21]: -3.84%; inhibition [22]: 14.1%; inhibition [23]: 21.7%; inhibition [24]: 9.95%; inhibition [25]: 14.6%; inhibition [26]: 5.34%
2 | CC1=C(C#N)C(c2ccc3[nH]nc(C)c3c2)C(C#N)=C(C)N1 [BAY-474] | 8.75% | 16.9% | 5.33% | -3.48% | 0.48% | < 0.001 µM (active) | 2.64% | -1.54% | -8.64% | 33% | -0.97% | 2.16% | 22.4% | 20.2% | 21.1% | -4.65% | 20.7% | 5.4% | 23.9% | 8.04% | inhibition [20]: 6.92%; inhibition [21]: 8.21%; inhibition [22]: 12.6%; inhibition [23]: 1.79%; inhibition [24]: 5.48%; inhibition [25]: -9.08%; inhibition [26]: 24%
